For orientation: IC50 means the midpoint of a concentration-inhibition curve. What is called MRT is a mean duration of stay, worked out from the concentration-time curve.

Results on one molecule are retold here after patent US11136324B2, “Substituted imidazoles as apoptosis signal regulating kinase 1 inhibitors” (Jiangsu Hansoh Pharmaceutical Group Co., Ltd., priority 2017, dated 2021).

The structures appear in SMILES notation.

In data set [1] the target is ASK1 kinase (Homo sapiens (Human), UniProt Q99683). In words: ASK1 enzymatic test (TR-FRET). Format: biochemical. The conditions noted are these: ASK1 kinase activity. A digest of the protocol:
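ASK1 at 0.220 nM final was incubated with serially diluted compound, substrate peptide (100–5000 nM final) and ATP (100–1000 μM final) for 0.5–5 h at room temperature. The reaction was stopped with EDTA and labelled antibody, then read by TR-FRET at 615/665 nm after 2–24 h. IC50 was obtained by curve fitting of inhibition rates.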
On the technique in general: In TR-FRET formats the signal depends on donor and acceptor labels being close together.

The nature of data set [2]: Pharmacokinetic (PK) assay in mice. The conditions noted are these: Balb/c male mice, single intragastric administration, 5 mg/kg, plasma. Format: in vivo. The gist of the method:
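Male Balb/c mice given a single intragastric dose of 5 mg/kg (10 ml/kg) in 0.5% CMC-Na. Orbital blood at 0.5–24 h into K2EDTA; plasma acetonitrile-precipitated and measured by LC-MS/MS (C18, formic acid/acetonitrile gradient). PK parameters by WinNonlin.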

Data set [3] relates to non-alcoholic steatohepatitis mice induced by HFD (high fat diet)+CCl4. In words: Effect on serum ALT and AST levels of non-alcoholic steatohepatitis mice induced by HFD+CCl4. It is filed as in vivo, C57BL/6 mice. Further details: concentration or dose not given beside the values. The conditions noted are these: oral once a day for 28 days, versus solvent control group. An excerpt:
3. The effect of the compounds of the present invention on the ALT and AST levels of non-alcoholic steatohepatitis mice induced by HFD (high fat diet)+CCl4
The object of this test example is to determine whether the compounds of the present invention can down-regulate the ALT and AST levels in the serum of non-alcoholic steatohepatitis mice or not.
C57BL/6 mice were adaptively fed in a SPF (specific pathogen free) barrier for 3 to 7 days, and then fed with HFD feed with a feeding cycle of 8 weeks. At the fifth week of HFD feeding, the HFD-induced mice were randomly grouped according to body weight, and orally administrated with CCl4 twice a week for 4 weeks. At the day of modeling with CCl4, the test compounds were orally administrated once a day continuously for 28 days. The solvent control group was administrated with the corresponding solvent of the test compounds with an administration volume of 10 mL/kg. The mice were euthanized with CO2 48 hours after the last administration of CCl4, and the non-anticoagulated venous blood was collected from the heart. The whole blood was left to stand at room temperature for at least 30 minutes, and then centrifuged for 5 minutes at 4° C. at 5000 rpm to separate the serum. The serum was dispensed into two portions in 1.5 mL EP tubes, and stored at −80° C. for later use.
The ALT and AST levels in mice serum were determined using the alanine aminotransfease (ALT/GPT) kit and aspartate aminotransferase (AST/GOT) kit. The ALT (or AST) test substrate solution was preheated in a 37° C. incubator; 20 μL of substrate solution were pipetted into a 96-well plate, and 5 μL of serum were pipetted into the 96-well plate as test well. After mixing well, the plate was sealed using a sealing film, and placed into the 37° C. incubator to incubate for 30 min. The ALT (or AST) standard curve was formulated, and 25 μL of which were pipetted into the 96-well plate; 20 μL of […] were pipetted into the 96-well plate as control well; 20 μL of 2,4-dinitrophenylhydrazine solution were added to each well. After mixing well, the plate was sealed using a sealing film, and placed into the 37° C. incubator to incubate for 20 min. 200 μL of 0.4 M NaOH solution were added to each well. The plate was placed on a shaker to shake for 15 min, and then measured on the BioTek Synergy H1 instrument using OD detection program at a wavelength of 510 nm. The absolute OD value was calculated from the OD value of each well. Absolute OD value=OD value of measured well−OD value of control well. The absolute OD value was taken into the standard curve to obtain the ALT (or AST) content of the sample. Samples that exceed the standard curve range should be re-tested after diluting the serum to an appropriate concentration. Data processing: (% ALT reduction rate)=(solvent control group−test compound)/solvent control group×100%; (% AST reduction rate)=(solvent control group−test compound)/solvent control group×100%.

Chain of ASK1 kinase (Q99683 whole entry): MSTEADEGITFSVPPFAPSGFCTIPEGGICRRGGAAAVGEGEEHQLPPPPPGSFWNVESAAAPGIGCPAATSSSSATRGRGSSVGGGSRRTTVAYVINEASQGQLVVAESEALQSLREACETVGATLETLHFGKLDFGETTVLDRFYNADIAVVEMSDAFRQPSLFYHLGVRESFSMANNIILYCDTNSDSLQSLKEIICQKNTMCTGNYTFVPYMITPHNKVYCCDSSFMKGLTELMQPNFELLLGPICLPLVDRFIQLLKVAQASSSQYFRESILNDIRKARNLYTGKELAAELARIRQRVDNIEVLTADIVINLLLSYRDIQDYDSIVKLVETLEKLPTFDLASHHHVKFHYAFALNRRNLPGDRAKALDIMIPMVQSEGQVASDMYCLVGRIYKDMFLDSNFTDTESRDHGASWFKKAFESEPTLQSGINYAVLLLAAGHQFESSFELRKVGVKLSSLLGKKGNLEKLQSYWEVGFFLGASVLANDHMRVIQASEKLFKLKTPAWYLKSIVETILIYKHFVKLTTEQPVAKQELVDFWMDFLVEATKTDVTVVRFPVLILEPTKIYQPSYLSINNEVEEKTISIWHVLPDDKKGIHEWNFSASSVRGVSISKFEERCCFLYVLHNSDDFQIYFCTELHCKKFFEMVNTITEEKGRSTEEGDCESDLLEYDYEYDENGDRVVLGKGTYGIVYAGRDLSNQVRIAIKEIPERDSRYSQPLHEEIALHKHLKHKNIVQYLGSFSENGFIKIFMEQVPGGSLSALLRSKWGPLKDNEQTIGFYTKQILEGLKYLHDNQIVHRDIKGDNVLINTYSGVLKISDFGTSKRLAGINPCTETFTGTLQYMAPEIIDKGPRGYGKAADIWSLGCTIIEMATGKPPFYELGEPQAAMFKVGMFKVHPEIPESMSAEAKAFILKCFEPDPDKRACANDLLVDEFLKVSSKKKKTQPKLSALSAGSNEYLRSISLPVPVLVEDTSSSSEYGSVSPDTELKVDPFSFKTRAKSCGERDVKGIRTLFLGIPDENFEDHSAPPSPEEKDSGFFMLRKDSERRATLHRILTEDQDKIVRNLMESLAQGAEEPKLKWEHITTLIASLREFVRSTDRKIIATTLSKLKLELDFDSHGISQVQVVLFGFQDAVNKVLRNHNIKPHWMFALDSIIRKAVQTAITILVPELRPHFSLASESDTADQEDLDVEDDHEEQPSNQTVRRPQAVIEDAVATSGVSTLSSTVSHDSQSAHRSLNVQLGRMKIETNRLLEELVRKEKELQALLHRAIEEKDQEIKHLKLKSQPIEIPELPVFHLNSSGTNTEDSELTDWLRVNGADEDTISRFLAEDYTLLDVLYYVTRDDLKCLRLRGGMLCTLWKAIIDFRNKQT

For `Cc1cc(F)c(C(=O)Nc2cccc(-c3nnc4n3C3(CC4)CC3)n2)cc1-n1cnc(C2CC2)c1` [Example 61, 5-(4-Cyclopropyl-1H-imidazol-1-yl)-N-(6-(6′,7′-dihydrospiro[cyclopropane-1,5′-pyrrolo[2,1-c][1,2,4]triazol]-3′-yl)pyridin-2-yl)-2-fluoro-4-methylbenzamide], in data set [1], half-maximal inhibition (IC50) was put at 1.9 nM. Also, the Peak time tmax in data set [2] worked out at 1 h. Further, in data set [2] (mouse, po, read-out: Area under curve AUC0-t), the AUC(0-t) was 68600 ng·h/mL. Moreover, the AUC(0-inf) in data set [2] (mouse, po, read-out: Area under curve AUC0-∞) amounted to 68800 ng·h/mL. For the same molecule, the half-life in data set [2] (mouse, po, read-out: Half-life t1/2 (converted)) is 2.7 h. In addition, in data set [2] (mouse, po, read-out: Mean residence time MRT), the MRT stood at 4.5 h. For the same molecule, the Cmax in data set [2] (mouse, po, read-out: Plasma concentration Cmax) is 11400 ng/mL. In data set [3], the “ALT(U/L) reduction rate (%)” value is reported as 50% and the “AST(U/L) reduction rate (%)” value is on record as 54%.
